In assay [1] the test system is adult male Lewis rats fasted for 24 h. In words: glyburide induced hypoglycemia in fasted rats, plasma glucose. Type of assay: in vivo, rat. Particulars: for glucose −30 min / glucose 1 h / glucose 3 h / glucose 6 h / glucose −24 h: fasted animals; for glucose −30 min: 30 min before application (baseline); for glucose 1 h: 1 h after application; for glucose 3 h: 3 h after application; for glucose 6 h: 6 h after application; for glucose −24 h: 24 h before application (baseline). Here is the method:
Food restriction for 24 h reduced plasma glucose concentration in all treatment groups from about 8 mmol/l to approximately 6 mmol/l. 30 min before the application of the compound (FIG. 1, Table 1).

In another assay the test system is fed rats. As to the kind of experiment: glyburide effect on plasma glucose in fed rats. Type of assay: in vivo, rat. The conditions noted are these: for glucose −30 min / glucose 1 h / glucose 3 h / glucose 6 h / glucose −24 h: fed animals; for glucose −30 min: 30 min before application (baseline); for glucose 1 h: 1 h after application; for glucose 3 h: 3 h after application; for glucose 6 h: 6 h after application; for glucose −24 h: 24 h before application (baseline). How it is done: 30 min before the application of the compound (FIG. 1, Table 1).

The test system of a further assay is patients. The conditions noted are these: patients with hypoglycemia receiving octreotide; cited from earlier work.
The mark [2] stands for this setting: Glyburide 30 mg/kg p.o. + 10 μg/kg s.c.
Setting [3] is: Glyburide 30 mg/kg p.o. + 30 μg/kg s.c.

Some results are limits rather than exact numbers.

As to “cyclo[{(4-(NH2—C2H4—NH—CO—O—)Pro}-Phg-DTrp-Lys-Tyr(4-Bzl)-Phe] [pasireotide]”, in assay [1] (setting [2]), the “glucose −30 min” value was 5.88 ± 0.16 mmol/L, the “glucose 1 h” value is reported as 7.00 ± 0.42 mmol/L, the “glucose 3 h” value was found to be 6.22 ± 0.42 mmol/L and the “glucose 6 h” value is reported as 6.48 ± 0.52 mmol/L. For the same molecule, the “glucose −24 h” value in assay [1] (setting [2]) was found to be 8.07 ± 0.45 mmol/L. In addition, in assay [1] (setting [3]), the “glucose −30 min” value was determined as 6.10 ± 0.23 mmol/L, the “glucose 1 h” value is given as 6.98 ± 0.59 mmol/L, the “glucose 3 h” value amounted to 7.55 ± 0.47 mmol/L and the “glucose 6 h” value was 7.58 ± 0.47 mmol/L. Also, the “glucose −24 h” value in assay [1] (setting [3]) is 7.93 ± 0.52 mmol/L. For the same molecule, the “effect on plasma glucose in glyburide treated rats” value in assay [1] (fasted rats, Glyburide 30 mg/kg p.o. + 10 or 30 μg/kg s.c., 1, 3 and 6 h after the application) is recorded as “plasma glucose increased to levels of untreated fasted rats or above”. For the same molecule, in the assay on fed rats (setting [2]), the “glucose −30 min” value worked out at 8.53 ± 0.34 mmol/L, the “glucose 1 h” value was 13.48 ± 0.65 mmol/L, the “glucose 3 h” value is on record as 12.42 ± 0.39 mmol/L and the “glucose 6 h” value is given as 6.85 ± 0.23 mmol/L. For the same molecule, in the assay on fed rats (setting [2]), the “glucose −24 h” value came to 8.65 ± 0.18 mmol/L. In addition, in the assay on fed rats (setting [3]), the “glucose −30 min” value was found to be 8.10 ± 0.29 mmol/L, the “glucose 1 h” value amounted to 13.47 ± 0.91 mmol/L, the “glucose 3 h” value is given as 13.13 ± 0.69 mmol/L and the “glucose 6 h” value was determined as 9.12 ± 0.47 mmol/L. The “glucose −24 h” value in the assay on fed rats (setting [3]) is given as 8.85 ± 0.25 mmol/L. For the same molecule, the “effect on plasma glucose” value with fed rats (fed rats pretreated with glyburide) is given as “significant but transit effect”.
Take `C[C@@H](O)[C@@H]1NC(=O)[C@H](CCCCN)NC(=O)[C@@H](Cc2c[nH]c3ccccc23)NC(=O)[C@H](Cc2ccccc2)NC(=O)[C@@H](NC(=O)[C@H](N)Cc2ccccc2)CSSC[C@@H](C(=O)N[C@H](CO)[C@@H](C)O)NC1=O` [octreotide]: in assay [1] (setting [2]), the “glucose −30 min” value is recorded as 5.75 ± 0.21 mmol/L, the “glucose 1 h” value is given as 4.27 ± 0.07 mmol/L, the “glucose 3 h” value is given as 4.28 ± 0.14 mmol/L and the “glucose 6 h” value was determined as 4.28 ± 0.23 mmol/L. In addition, the “glucose −24 h” value in assay [1] (setting [2]) stood at 8.53 ± 0.27 mmol/L. For the same molecule, in assay [1] (setting [3]), the “glucose −30 min” value turned out to be 6.43 ± 0.49 mmol/L, the “glucose 1 h” value stood at 4.22 ± 0.14 mmol/L, the “glucose 3 h” value is recorded as 5.83 ± 0.28 mmol/L and the “glucose 6 h” value is listed as 4.83 ± 0.24 mmol/L. The “glucose −24 h” value in assay [1] (setting [3]) came out at 8.63 ± 0.19 mmol/L. Besides, the “prevention of the glyburide induced hypoglycemia” value in assay [1] (fasted rats, Glyburide 30 mg/kg p.o. + 10 or 30 μg/kg s.c., after 1 h) is on record as “not effective”. Further, in assay [1] (fasted rats, highest dose (30 μg/kg s.c.), after 3 and 6 h), the “effect on glucose levels in glyburide treated rats” value is “only a small tendency to increase glucose levels”. In the assay on patients, the “serum glucose level versus controls” value is recorded as “higher than that in controls” and the “time within which the effect on serum glucose waned” value is at most 8 h. Besides, in the assay with fed rats (setting [2]), the “glucose 1 h” value is 7.27 ± 0.15 mmol/L, the “glucose 3 h” value was 5.80 ± 0.24 mmol/L, the “glucose 6 h” value is given as 6.00 ± 0.44 mmol/L and the “glucose −24 h” value came to 8.17 ± 0.38 mmol/L. For the same molecule, in the assay on fed rats (setting [3]), the “glucose 1 h” value is on record as 7.48 ± 0.25 mmol/L, the “glucose 3 h” value came to 5.63 ± 0.24 mmol/L, the “glucose 6 h” value was 6.10 ± 0.43 mmol/L and the “glucose −24 h” value is reported as 8.07 + 0.43 mmol/L.
Consider `COc1ccc(Cl)cc1C(=O)NCCc1ccc(S(=O)(=O)NC(=O)NC2CCCCC2)cc1` [Glyburide], for which, in assay [1] (Glyburide 30 mg/kg p.o. alone), the “glucose −30 min” value is 6.07 ± 0.39 mmol/L, the “glucose 1 h” value came out at 5.48 ± 0.15 mmol/L, the “glucose 3 h” value is on record as 4.17 ± 0.16 mmol/L and the “glucose 6 h” value was 3.53 ± 0.13 mmol/L. In assay [1] (Glyburide 30 mg/kg p.o. alone), the “glucose −24 h” value came out at 7.87 ± 0.34 mmol/L. The “minimum plasma glucose level” value in assay [1] (fasted rats, Glyburide 30 mg/kg p.o. alone, 6 h after the application) turned out to be 3.5 mmol/L. Also, in the assay on fed rats (Glyburide 30 mg/kg p.o. alone), the “glucose −30 min” value was determined as 8.72 ± 0.14 mmol/L, the “glucose 1 h” value is given as 7.42 ± 0.18 mmol/L, the “glucose 3 h” value was found to be 5.33 ± 0.16 mmol/L and the “glucose 6 h” value was found to be 6.27 ± 0.16 mmol/L. The “glucose −24 h” value with fed rats (Glyburide 30 mg/kg p.o. alone) turned out to be 8.65 ± 0.11 mmol/L. In the assay with fed rats (fed rats, glyburide alone), the hypoglycemic effect entry is listed as “not very pronounced”.

The values above are taken from patent publication US9314508B2, “Use of somatostatin analogs in control of hypoglycemia” (priority 2008, dated 2016).
